From PubChem BioAssay AID1845197 (Molecular Pharmacology Branch, DTP, NCI, 2023) come the findings set out here.

The test system of this assay is 349418-098-R tumor spheroid viability. As to the kind of experiment: Anticancer human tumor 349418-098-R patient-derived lung adenocarcinoma cell line growth inhibition. The note with it: spheroids with HUVEC and MSC; for viability, T/C: stronger effect = lower value. The procedure, abridged:
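Single agents and combinations were tested on spheroids built from tumor cells plus HUVEC and hMSC, at half-log dilutions starting at or near clinical Cmax, else 10 microM; final DMSO 0.25% (v/v).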

[1] abbreviates: curve of first compound, second compound 0.003 µM.
The mark [2] stands for this setting: second compound 0.003 µM, first compound 0.0316 µM.
The mark [3] stands for this setting: second compound 0.003 µM, first compound 0.1 µM.
Setting [4] is: second compound 0.003 µM, first compound 0.316 µM.
[5] abbreviates: second compound 0.003 µM, first compound 1 µM.
[6] abbreviates: second compound 0.003 µM, first compound 3.16 µM.
Where [7] appears, read: second compound 0.003 µM, first compound 10 µM.

As a reminder, the IC50 is the concentration at which inhibition is half-maximal. By viability, T/C is commonly meant the result in the treated group divided by that in the control group, in per cent.

Where “and” joins values, the source holds several entries; their conditions need not be identical. Equal entries are not always repeated.
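Also: spheroids exposed to compound for 7 days before measurement.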
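For viability, T/C in this document: percent of vehicle control viability with 100% = DMSO-treated spheroids.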

Turning to `COc1cc(C)[nH]c(=O)c1CN1CCc2c(Cl)cc(C(OC)C3COC3)c(Cl)c2C1=O` (centres undefined) + CC[C@@]1(O)C(=O)OCc2c1cc1n(c2=O)Cc2cc3c(CN(C)C)c(O)ccc3nc2-1, the IC50 is, setting by setting: under setting [1], greater than 10000 nM; (curve of first compound, second compound 0.00949 µM) greater than 10000 nM; (curve of first compound, second compound 0.03 µM) 5480 nM; (curve of first compound, second compound 0.0949 µM) less than 31.6 nM; (curve of first compound, second compound 0.3 µM) less than 31.6 nM. The viability, T/C by setting is: under setting [2], 108%; under setting [3], 123%; under setting [4], 104%; under setting [5], 109%; under setting [6], 109%; under setting [7], 114%. For the same molecule, the viability, T/C (second compound 0.00949 µM, first compound 0.0316 µM) is 104%; the viability, T/C (second compound 0.00949 µM, first compound 0.1 µM) is 121%; the viability, T/C (second compound 0.00949 µM, first compound 0.316 µM) was 100%; the viability, T/C (second compound 0.00949 µM, first compound 1 µM) was 113%; the viability, T/C (second compound 0.00949 µM, first compound 3.16 µM) was 97.1%; the viability, T/C (second compound 0.00949 µM, first compound 10 µM) was 94.8%. Moreover, the viability, T/C reads like this: (second compound 0.03 µM, first compound 0.0316 µM) 89.7%; (second compound 0.03 µM, first compound 0.1 µM) 73.8%; (second compound 0.03 µM, first compound 0.316 µM) 65.6%; (second compound 0.03 µM, first compound 1 µM) 71.8%; (second compound 0.03 µM, first compound 3.16 µM) 60.1%; (second compound 0.03 µM, first compound 10 µM) 40.5%. The viability, T/C (second compound 0.0949 µM, first compound 0.0316 µM) is 19.4%; the viability, T/C (second compound 0.0949 µM, first compound 0.1 µM) was 17.1%; the viability, T/C (second compound 0.0949 µM, first compound 0.316 µM) was 9.77%; the viability, T/C (second compound 0.0949 µM, first compound 1 µM) was 16%; the viability, T/C (second compound 0.0949 µM, first compound 3.16 µM) is 13.4%; the viability, T/C (second compound 0.0949 µM, first compound 10 µM) was 8.01%. For the same molecule, the viability, T/C is, setting by setting: (second compound 0.3 µM, first compound 0.0316 µM) 5.42%; (second compound 0.3 µM, first compound 0.1 µM) 4.95%; (second compound 0.3 µM, first compound 0.316 µM) 4.96%; (second compound 0.3 µM, first compound 1 µM) 3.5%; (second compound 0.3 µM, first compound 3.16 µM) 4.11%; (second compound 0.3 µM, first compound 10 µM) 5.21%.

For the molecule `CC1COCCN1c1cc(-c2ccnn2C)c2ccnc(-c3ccn[nH]3)c2n1` (centres undefined) + COc1cc2c(cc1O)CCNC21CSC2c3c(OC(C)=O)c(C)c4c(c3C(COC1=O)N1C(O)C3Cc5cc(C)c(OC)c(O)c5C(C21)N3C)OCO4, the half-maximal inhibitory concentration (IC50) was 63.1 nM (curve of first compound, second compound 30 pM); 36.5 nM (curve of first compound, second compound 94.9 pM); less than 31.6 nM (curve of first compound, second compound 0.0003 µM); less than 31.6 nM (curve of first compound, second compound 0.000949 µM); less than 31.6 nM under setting [1]. The viability, T/C (second compound 30 pM, first compound 0.0316 µM) was 88.5%; the viability, T/C (second compound 30 pM, first compound 0.1 µM) is 24.3%; the viability, T/C (second compound 30 pM, first compound 0.316 µM) is 13.4%; the viability, T/C (second compound 30 pM, first compound 1 µM) was 12.1%; the viability, T/C (second compound 30 pM, first compound 3.16 µM) is 12.2%; the viability, T/C (second compound 30 pM, first compound 10 µM) is 11.8%. Further, the viability, T/C is 54.9% (second compound 94.9 pM, first compound 0.0316 µM); 16.2% (second compound 94.9 pM, first compound 0.1 µM); 9.93% (second compound 94.9 pM, first compound 0.316 µM); 10.6% (second compound 94.9 pM, first compound 1 µM); 12.4% (second compound 94.9 pM, first compound 3.16 µM); 10.6% (second compound 94.9 pM, first compound 10 µM). The viability, T/C was 12% (second compound 0.0003 µM, first compound 0.0316 µM); 4.5% (second compound 0.0003 µM, first compound 0.1 µM); 5.77% (second compound 0.0003 µM, first compound 0.316 µM); 6.89% (second compound 0.0003 µM, first compound 1 µM); 7.2% (second compound 0.0003 µM, first compound 3.16 µM); 7.37% (second compound 0.0003 µM, first compound 10 µM). In addition, the viability, T/C by setting is: (second compound 0.000949 µM, first compound 0.0316 µM) 0.38%; (second compound 0.000949 µM, first compound 0.1 µM) 0.68%; (second compound 0.000949 µM, first compound 0.316 µM) 0.46%; (second compound 0.000949 µM, first compound 1 µM) 0.39%; (second compound 0.000949 µM, first compound 3.16 µM) 0.25%; (second compound 0.000949 µM, first compound 10 µM) 0.23%. The viability, T/C under setting [2] was 1.52%; the viability, T/C under setting [3] is 1.22%; the viability, T/C under setting [4] was 1.66%; the viability, T/C under setting [5] is 1.39%; the viability, T/C under setting [6] was 1.43%; the viability, T/C under setting [7] is 1.5%.

Take `COc1cc(C)[nH]c(=O)c1CN1CCc2c(Cl)cc(C(OC)C3COC3)c(Cl)c2C1=O` (centres undefined): the viability, T/C by setting is: (compound 0.0316 µM) 113% and 98.1% and 118%; (compound 0.1 µM) 115% and 96.7% and 122%; (compound 0.316 µM) 108% and 91.9% and 112%; (compound 1 µM) 104% and 92% and 112%; (compound 3.16 µM) 101% and 79.7% and 118%; (compound 10 µM) 96.4% and 83.6% and 103%. For the same molecule, the half-maximal inhibitory concentration (IC50) (curve of compound) is greater than 10000 nM.

On to `Cn1ncnc1[C@H]1c2n[nH]c(=O)c3cc(F)cc(c23)N[C@@H]1c1ccc(F)cc1`, for which the viability, T/C is 98.5% and 97% and 84.1% (compound 0.00949 µM); 96.8% and 96.3% and 103% (compound 0.03 µM); 95.9% and 95.6% and 97.9% (compound 0.0949 µM); 92.7% and 92.3% and 93.1% (compound 0.3 µM); 93.1% and 85% and 89.9% (compound 0.949 µM); 9.44% and 11.2% and 10.9% (compound 3 µM). In addition, the IC50 (curve of compound) is 1720 nM and 1640 nM and 1700 nM.
